Read-outs that look alike come from different tables or passages of the source.
Key:
[1] = system: pAKT in BT474 cells; assay: Cell-based pAKT HTRF assay in BT474 cells; conditions: BT474 cells, 4 hr incubation, read-out: pAKT inhibition IC50 in BT474 cells
Procedure, shortened: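 Cells are seeded on day 1 and dosed on day 2 with a 9-point curve (3 μM top, 3-fold). After 4 hr they are lysed and the lysate is mixed with d2- and Eu Cryptate-labelled antibodies. HTRF is read after 4–24 h at room temperature.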

[2] = target: Cys242 in human PIK3CA (157-299) (Homo sapiens (Human), UniProt P42336); assay: Covalent modification assay using MALDI-TOF MS; type: biochemical; conditions: 4 h reaction time point
Chain of Cys242 in human PIK3CA (157-299) (P42336 157-299): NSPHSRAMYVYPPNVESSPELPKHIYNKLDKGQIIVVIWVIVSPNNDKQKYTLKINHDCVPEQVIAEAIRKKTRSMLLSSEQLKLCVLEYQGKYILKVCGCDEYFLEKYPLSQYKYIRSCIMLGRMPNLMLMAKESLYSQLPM
Procedure, shortened: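 Covalent adduct formation was read by linear-mode MALDI-TOF with sinapinic acid matrix, reported as modified-protein peak height divided by total protein peak heights. Reactions held PIK3CA (157-299) at 1 or 3.33 μM in HEPES/NaCl/MgCl2 buffer, pH 7.3, sampled after 15 min to 4 h at room temperature.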

[3] = 3.33 μM protein target, 1:7.5 protein to compound ratio (compounds 1-852)
[4] = 1 μM protein target, 1:5 protein to compound ratio (compounds 853-1279)
[5] = Homo sapiens, BT-474, Compounds 10-999

| SMILES | IC50 ([1]; Compounds 10-999) [nM] | % of modification [2, 3] | % of modification [2, 4] | further results |
| --- | --- | --- | --- | --- |
| C=CC(=O)N1CCc2nc(-c3nc(-c4ccc5c(c4)C(O)CC5)c4ccsc4c3-c3c(F)cc(F)cc3OCCOC)sc2C1 (stereo not drawn) [Compound 416] | < 100 | A (percent of modification of PIK3CA protein ≥75%) | – | – |
| C=CC(=O)N1CCc2nc(-c3nc(-c4ccc(=O)n(C)c4)c4ccsc4c3-c3c(F)cc(F)cc3OCCOC)sc2C1 [Compound 997] | < 100 | – | A (percent of modification of PIK3CA protein ≥75%) | – |
| C=CC(=O)N1CCc2nc(-c3nc(-c4ccc5c(c4)CCN(C)C5)c4ccsc4c3-c3c(F)cc(F)cc3OC(F)F)sc2C1 [Compound 475] | > 3000 | B (50%<percent of modification <75%) | – | – |
| C=CC(=O)N1CCn2nc(-c3nc(-c4cncc(CCN(C)C)c4)c4ccsc4c3-c3c(F)cc(F)cc3OCCOC)cc2C1C (stereo not drawn) [Compound 1245] | – | – | A (percent of modification of PIK3CA protein ≥75%) | IC50 ([1]; Compounds 1000-1279): < 100 nM |
| C=CC(=O)N1CCn2nc(-c3nc(-c4ccc(N(C)C)nc4)c4ccsc4c3-c3c(F)cc(F)cc3OCCOC)cc2C1C (stereo not drawn) [Compound 982] | < 100 | – | A (percent of modification of PIK3CA protein ≥75%) | – |
| C=CC(=O)N1CCn2nc(-c3nc(-c4ccc5c(c4)CN(C)CC5)c4c(c3-c3c(F)cc(F)cc3OCCOC)CCC4)cc2C1C (stereo not drawn) [Compound 1244] | – | – | A (percent of modification of PIK3CA protein ≥75%) | IC50 ([1]; Compounds 1000-1279): < 100 nM |
| C=CC(=O)N1CCn2nc(-c3nc(-c4ccc5c(c4)CCN(C(C)C)C5)c4ccsc4c3-c3ccc(F)cc3OCCOC)nc2C1 [Compound 185, 1-[2-[7-[4-fluoro-2-(2-methoxyethoxy)phenyl]-4-(2-isopropyl-3,4-dihydro-1H-isoquinolin-6-yl)thieno[3,2-c]pyridin-6-yl]-6,8-dihydro-5H-[1,2,4]triazolo[1,5-a]pyrazin-7-yl]prop-2-en-1-one] | – | A (percent of modification of PIK3CA protein ≥75%) | – | IC50 [1, 5]: < 100 nM |
| C=CC(=O)N1CCn2nc(-c3nc(-c4ccc5c(c4)CN(C)C(=O)C5)c4ccsc4c3-c3c(F)cc(F)cc3OCCOC)cc2C1C (stereo not drawn) [Compound 983] | < 100 | – | A (percent of modification of PIK3CA protein ≥75%) | – |
| C=CC(=O)N1CCn2nc(-c3nc(-c4cc5c(cc4OC)C(=O)NC5)c4ccsc4c3-c3c(F)cc(F)cc3OCCO)cc2C1C (stereo not drawn) [Compound 1072] | – | – | A (percent of modification of PIK3CA protein ≥75%) | IC50 ([1]; Compounds 1000-1279): < 100 nM |
| C=C(F)C(=O)N1CCn2nc(-c3nc(-c4ccc5c(c4)CCNC5=O)c4ccsc4c3-c3ccc(F)cc3OC(C)C)cc2C1 [Compound 258, 6-[7-(4-fluoro-2-isopropoxy-phenyl)-6-[5-(2-fluoroprop-2-enoyl)-6,7-dihydro-4H-pyrazolo[1,5-a]pyrazin-2-yl]thieno[3,2-c]pyridin-4-yl]-3,4-dihydro-2H-isoquinolin-1-one] | – | B (50%<percent of modification <75%) | – | IC50 [1, 5]: < 100 nM |
| C=CC(=O)N1CCn2nc(-c3nc(-c4ccc(OCC5CN(C)C5)nc4)c4ccsc4c3-c3c(F)cc(F)cc3OCCOC)cc2C1C (stereo not drawn) [Compound 1201] | – | – | A (percent of modification of PIK3CA protein ≥75%) | IC50 ([1]; Compounds 1000-1279): < 100 nM |
| C=CC(=O)N1CCc2ncc(-c3nc(-c4cn(C)cn4)c4ccsc4c3-c3c(F)cc(F)cc3OC(C)C)cc2C1 [Compound 421] | < 100 | A (percent of modification of PIK3CA protein ≥75%) | – | – |
| C=CC(=O)N1CCn2nc(-c3nc(-c4cnc5c(c4)CN(C)CC5(F)F)c4ccsc4c3-c3c(F)cc(F)cc3OCCOC)cc2[C@H]1C [Compound 1152, 1-((R)-2-((S)-7-(2,4-difluoro-6-(2-methoxyethoxy)phenyl)-4-(8,8-difluoro-6-methyl-5,6,7,8-tetrahydro-1,6-naphthyridin-3-yl)thieno[3,2-c]pyridin-6-yl)-4-methyl-6,7-dihydropyrazolo[1,5-a]pyrazin-5(4H)-yl)prop-2-en-1-one] | – | – | A (percent of modification of PIK3CA protein ≥75%) | IC50 ([1]; Homo sapiens, BT-474, Compounds 1000-1279): < 100 nM |
| C=CC(=O)N1CCn2nc(-c3nc(-c4cncc(C#N)c4)c4ccsc4c3-c3ccc(F)cc3OCCOC)cc2C1 [Compound 202] | < 100 | A (percent of modification of PIK3CA protein ≥75%) | – | – |
| C=CC(=O)N1CCn2nc(-c3nc(-c4ccc5c(c4)CN(C)C(=O)C5)c4ccsc4c3-c3c(F)cc(F)cc3OCCO)cc2[C@H]1C [Compound 973] | < 100 | – | A (percent of modification of PIK3CA protein ≥75%) | – |
| C=CC(=O)N1CCc2ccc(-c3nc(-c4ccc5c(c4)C(=O)NC5)c4ccsc4c3-c3c(F)cc(F)cc3OCCOC)cc2C1 [Compound 1067] | – | – | D (percent of modification <25%) | IC50 ([1]; Compounds 1000-1279): > 1000 nM |
| C=CC(=O)N1CCn2nc(-c3nc(-c4ccc(C5(C(=O)NC)CC5)cc4)c4ccsc4c3-c3c(F)cc(F)cc3OCCOC)cc2[C@H]1C [Compound 1134] | – | – | A (percent of modification of PIK3CA protein ≥75%) | IC50 ([1]; Compounds 1000-1279): < 100 nM |
| C=CC(=O)N1CCn2nc(-c3nc(-c4ccnc(N)c4)c4ccsc4c3-c3ccc(F)cc3OCC3CCNC(=O)C3)cc2C1 (stereo not drawn) [Compound 249] | < 100 | A (percent of modification of PIK3CA protein ≥75%) | – | – |
| COCCOc1cc(F)cc(F)c1-c1c(-c2cc3n(n2)CCN(C(=O)C(F)Cl)[C@@H]3C)nc(-c2ccc3c(cnn3C)c2)c2ccsc12 (stereo partly drawn) [Compound 1228] | – | – | D (percent of modification <25%) | IC50 ([1]; Compounds 1000-1279): > 1000 nM |
| C=CC(=O)N1CCc2nc(-c3nc(-c4ccc(N)nc4)c4ccsc4c3-c3ccc(F)cc3OCCOC)sc2C1 [Compound 142] | < 100 | A (percent of modification of PIK3CA protein ≥75%) | – | – |
| C=C(F)C(=O)N1CCn2nc(-c3nc(-c4ccc(=O)n(C)c4)c4ccsc4c3-c3ccc(F)cc3OCCOC)cc2C1 [Compound 278] | 100 to 1000 | B (50%<percent of modification <75%) | – | – |
| C=CC(=O)N1CCn2nc(-c3nc(-c4ccc5c(c4)CCC5N(C)C)c4ccsc4c3-c3c(F)cc(F)cc3OCCOC)cc2C1C (stereo not drawn) [Compound 1182] | – | – | A (percent of modification of PIK3CA protein ≥75%) | IC50 ([1]; Compounds 1000-1279): < 100 nM |
| C=CC(=O)N1CCc2cnc(-c3nc(-c4ccc5c(c4)CNC5=O)c4ccsc4c3-c3c(F)cc(F)cc3OC(C)C)cc2C1 [Compound 453, 5-[7-(2,4-difluoro-6-isopropoxy-phenyl)-6-(6-prop-2-enoyl-7,8-dihydro-5H-2,6-naphthyridin-3-yl)thieno[3,2-c]pyridin-4-yl]isoindolin-1-one] | – | A (percent of modification of PIK3CA protein ≥75%) | – | IC50 [1, 5]: < 100 nM |
| C=CC(=O)N1Cc2cc(-c3nc(-c4cn(C)cn4)c4ccsc4c3-c3c(F)cc(F)cc3OCCOC)nn2[C@@H](C)C1 [Compound 509] | < 100 | A (percent of modification of PIK3CA protein ≥75%) | – | – |
| C=CC(=O)N1CC(n2cc(-c3nc(-c4ccc5c(c4)CNC(=O)C5)c4ccsc4c3-c3cccnc3OC)cn2)C1 [Compound 84, 7-[7-(2-methoxy-3-pyridyl)-6-[1-(1-prop-2-enoylazetidin-3-yl)pyrazol-4-yl]thieno[3,2-c]pyridin-4-yl]-2,4-dihydro-1H-isoquinolin-3-one] | – | B (50%<percent of modification <75%) | – | IC50 [1, 5]: 1000 to 3000 nM |
| C=CC(=O)N1CCc2ncc(-c3nc(-c4ccc5c(c4)CCN(C)C5)c4ccsc4c3-c3c(F)cc(F)cc3OC(C)C)cc2C1 [Compound 399] | < 100 | A (percent of modification of PIK3CA protein ≥75%) | – | – |
| C=CC(=O)N1Cc2cc(-c3nc(-c4ccc5c(c4)CCN(C)C5)c4ccsc4c3-c3c(F)cc(F)cc3OCCOC)nn2[C@@H](C)C1 [Compound 560] | < 100 | A (percent of modification of PIK3CA protein ≥75%) | – | – |
| C=CC(=O)N1CCn2nc(-c3nc(-c4ccc5cnn(C)c(=O)c5c4)c4ccsc4c3-c3c(F)cc(F)cc3OCCOC)cc2[C@@H]1C [Compound 898] | < 100 | – | A (percent of modification of PIK3CA protein ≥75%) | – |
| C=CC(=O)N1Cc2cc(-c3nc(-c4cnc(C)nc4)c4ccsc4c3-c3c(F)cc(F)cc3OCCO)nn2C(C)C1 (stereo not drawn) [Compound 785] | < 100 | A (percent of modification of PIK3CA protein ≥75%) | – | – |
| C=CC(=O)N1Cc2cc(-c3nc(-c4cnc5c(cnn5C)c4)c4ccsc4c3-c3c(F)cc(F)cc3OCCOC)nn2C[C@H]1C [Compound 797] | < 100 | A (percent of modification of PIK3CA protein ≥75%) | – | – |

From patent US20250230138A1, “COMPOUNDS HAVING A T-STRUCTURE FORMED BY AT LEAST FOUR CYCLES FOR USE IN THE TREATMENT OF CANCER AND OTHER INDICATIONS” (TheRas, Inc., priority 2022, published 2025)
